Consider three compounds from US20170136140A1, “Antimicrobial Compositions Utilizing Silver and Oxygen, Process for Making, and Method of Using the Same” (Avent, Inc., priority 2014, published 2017).

In data set [1] the test system is human fibroblasts. As to conditions: cited from earlier work.
The subject of data set [2] is Methicillin-resistant Staphylococcus aureus—MRSA (Clinical isolate). Kind of data set: Antimicrobial challenge test (time-kill) in 95% TSB, concentrated media and silver. Format: cell-based. As to conditions: throughout the duration of the testing (3 and 6 hours), 100% oxygen headspace, no silver.
Description: In the first sample, 10 ml of 95% tryptic soy broth (TSB) was inoculated with approximately 10^5 CFU of Methicillin-resistant Staphylococcus aureus—MRSA (Clinical isolate). […] Each test sample was then incubated at 37° C.; the level of surviving organisms was tested after 3 hours and 6 hours for each.
The challenge organism (MRSA Clinical isolate) was prepared by culturing in Soybean-Casein digest broth (TSB) at 35° C. for 18 to 24 hrs to an approximate concentration of 1.8×10^9 CFU per ml. • 2. For the challenge tests: 0.01 ml of the stock culture was added into a 50 ml screw top test tube and then diluted to 10 ml with 95% TSB broth to a final concentration of 1.8×10^6 CFU/ml. • 3. […] Silver Challenge test: To a test tube prepared as described from step 2; 100 μl of 30% wt/wt AgNO3 was added and vortexed to mix for a final concentration of 0.3% AgNO3. • b. Silver+O2 challenge test: To a test tube prepared as described from step 2; 100 μl of 30% wt/wt AgNO3 solution was added and vortexed to mix for a final concentration of 0.3% AgNO3. […] The samples were then incubated at 37° C. for both 3 and 6 hours. • d. At the 3 and 6 hour time point the samples were plated at different dilutions (10^−1, 10^−3, and 10^−5) to enumerate the surviving colonies. • i. The 3 hour samples was re-purged with 02 gas and returned to the incubating oven for an additional 3 hours. • ii. […]
Data set [3] concerns Pseudomonas aeruginosa (ATCC 9027). Format: cell-based. As to conditions: 37° C., 0.03 ppm silver (from silver nitrate), 5% TSB, based on time zero plate count.
Description: Each test sample was then incubated at 37° C.; the level of surviving organisms was tested after 3 hours and 6 hours for each.
The challenge organism (Pseudomonas aeruginosa ATCC 9027) was prepared by culturing in Soybean-Casein digest broth (TSB) at 35° C. for 18 to 24 hrs to an approximate concentration of 1.8×10^8 CFU per ml. • 2. For the challenge tests: 0.01 ml of the stock culture was added into a 50 ml screw top test tube and then diluted to 10 ml with 5% TSB broth to a final concentration of 1.8×10^5 CFU/ml. • 3. […] Silver Challenge test: To a test tube prepared as described from step 2; 100 μl of 3 ppm AgNO3 was added and vortexed to mix for a final concentration of 0.03 ppm AgNO3. • b. Silver+O2 challenge test: To a test tube prepared as described from step 2; 100 μl of 3 ppm Ag+ (from AgNO3) solution was added and vortexed to mix for a final concentration of 0.03 ppm AgNO3. […] The samples were then incubated at 37° C. for both 3 and 6 hours. • d. At the 3 and 6 hour time point the samples were plated at different dilutions (10^−1, 10^−3, and 10^−5) to enumerate the surviving colonies. • i. The 3 hour samples were re-purged with 02 gas and returned to the incubating oven for an additional 3 hours. • ii. The media used for plating was Trypticase soy agar (TSA). • e. The plates were incubated for 2 to 3 days before counting. • f. […]

Where two headings read alike, the source gives them in different places.

Consider `[Ag+]` [Ionic silver], for which the “concentration cytotoxic to human fibroblasts” value in data set [1] was 1 parts per million.

On to `O=O` [Sample 4, oxygen gas], for which the “change in the amount of colony forming units” value in data set [2] is given as “increase”.

As to silver nitrate [Sample 1], the entries for the “log reduction in the number of CFU” value in data set [3] (after 3 hours) and in data set [3] (after 6 hours) were 2 log and 3 log, respectively.
